Reference: the NIST ThermoML archive (doi:10.1016/j.jct.2018.06.015)
Numbers after ± are expanded uncertainties.

Experiments:
[1] = 100 kPa, Liquid; for speed of sound: Frequency=3 MHz, Single path-length method; for mass density: Vibrating tube method
[2] = xn = mol fraction of the nth substance listed; settings: 100 kPa, Liquid, x2 = 0; for speed of sound: Frequency=3 MHz, Single path-length method; for mass density: Vibrating tube method

SMILES | speed of sound ([1]; 293.15 K) [m/s] | mass density ([1]; 293.15 K) [kg/m3] | speed of sound ([1]; 298.15 K) [m/s] | mass density ([1]; 298.15 K) [kg/m3] | speed of sound ([1]; 303.15 K) [m/s] | mass density ([1]; 303.15 K) [kg/m3] | speed of sound ([1]; 308.15 K) [m/s] | mass density ([1]; 308.15 K) [kg/m3] | speed of sound ([1]; 313.15 K) [m/s] | mass density ([1]; 313.15 K) [kg/m3] | speed of sound ([2]; 293.15 K) [m/s] | mass density ([2]; 293.15 K) [kg/m3] | speed of sound ([2]; 298.15 K) [m/s] | mass density ([2]; 298.15 K) [kg/m3] | speed of sound ([2]; 303.15 K) [m/s] | mass density ([2]; 303.15 K) [kg/m3] | speed of sound ([2]; 308.15 K) [m/s] | mass density ([2]; 308.15 K) [kg/m3] | speed of sound ([2]; 313.15 K) [m/s] | mass density ([2]; 313.15 K) [kg/m3]
CCCCOCCOCCO [3,6-dioxa-1-decanol] | 1378.2 ± 2.5 | 952.288 ± 0.41 | 1361.3 ± 2.5 | 948.1 ± 0.41 | 1344.5 ± 2.5 | 943.909 ± 0.41 | 1326.4 ± 2.5 | 939.704 ± 0.41 | 1307.7 ± 2.5 | 935.503 ± 0.41 |  |  |  |  |  |  |  |  |  | 
CCCCCCO [hexan-1-ol] + CCCCOCCOCCO |  |  |  |  |  |  |  |  |  |  | 1320.4 ± 2.5 | 819.239 ± 0.42 | 1303.5 ± 2.5 | 815.652 ± 0.42 | 1286.7 ± 2.5 | 812.043 ± 0.42 | 1270 ± 2.5 | 808.402 ± 0.42 | 1253.5 ± 2.5 | 804.743 ± 0.42
CCCCCCCCO [octan-1-ol] + CCCCOCCOCCO |  |  |  |  |  |  |  |  |  |  | 1364.1 ± 2.4 | 825.337 ± 0.41 | 1347.3 ± 2.4 | 821.877 ± 0.41 | 1331 ± 2.4 | 818.4 ± 0.41 | 1314.3 ± 2.4 | 814.903 ± 0.41 | 1297.7 ± 2.4 | 811.385 ± 0.41
CCCCCCCCCCO [decan-1-ol] + CCCCOCCOCCO |  |  |  |  |  |  |  |  |  |  | 1396.7 ± 2.5 | 829.898 ± 0.42 | 1379.4 ± 2.5 | 826.489 ± 0.42 | 1362.4 ± 2.5 | 823.069 ± 0.42 | 1345.6 ± 2.5 | 819.635 ± 0.42 | 1329.1 ± 2.5 | 816.188 ± 0.42
